Reference: ChEMBL document CHEMBL1201862, “PubChem BioAssay data set” (2004)
Calls of active or inactive are those of the source.

How the values were obtained:
[1] = molecular target: Hepatocyte nuclear factor 4-alpha (Homo sapiens, UniProt P41235); format: functional, cell-based;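 further: biochemical luminescence-based dose-response counterscreen measuring inhibition of HNF4 dimerization, run alongside a screen for blockers of ABHD5–perilipin-5 interaction; split luciferase complementation of HNF4 fusion proteins in cell lysate measuring dimerization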
[2] = molecular target: Eukaryotic translation initiation factor 4E (Mus musculus, UniProt P63073); assay: eIF4E–eIF4G protein interaction inhibitors, dose response, biochemical, TR-FRET (AID 855); format: functional;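 further: potency for disrupting eIF4E binding to eIF4GI seen as loss of FRET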
[3] = molecular target: T1, C-C chemokine receptor type 6 (Homo sapiens, UniProt P51684); assay: CCR6 receptor antagonists, dose response, cell-based, luminescent beta-arrestin readout (AID 504728); format: functional
T1 sequence (P51684 whole entry): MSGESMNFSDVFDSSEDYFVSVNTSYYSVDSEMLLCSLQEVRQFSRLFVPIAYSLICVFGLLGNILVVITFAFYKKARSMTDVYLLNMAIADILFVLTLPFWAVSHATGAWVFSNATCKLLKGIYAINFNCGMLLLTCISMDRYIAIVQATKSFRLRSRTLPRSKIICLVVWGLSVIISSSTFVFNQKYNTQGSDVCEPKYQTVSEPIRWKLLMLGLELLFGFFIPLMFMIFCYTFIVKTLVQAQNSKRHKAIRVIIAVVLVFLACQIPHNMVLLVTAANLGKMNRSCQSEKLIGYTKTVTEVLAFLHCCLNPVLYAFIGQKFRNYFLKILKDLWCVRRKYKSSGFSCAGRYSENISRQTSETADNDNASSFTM

[4] = molecular target: Serine/threonine-protein kinase 3 (Homo sapiens, UniProt Q13188); format: functional;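 further: measured as one member of a kinome-wide kinase panel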
Misshapen-like kinase 1 = Misshapen-like kinase 1 (Homo sapiens, UniProt Q8N4C8); format: functional;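 further: kinome panel screen with MINK as the panel member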
Ephrin type-A receptor 2 = Ephrin type-A receptor 2 (Homo sapiens, UniProt P29317); format: functional;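 further: EPHA2 tested as one member of a kinome-wide kinase panel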
[5] = molecular target: Serine/threonine-protein kinase MRCK alpha (Homo sapiens, UniProt Q5VT25); format: functional
Chain of Serine/threonine-protein kinase MRCK alpha (Q5VT25 whole entry): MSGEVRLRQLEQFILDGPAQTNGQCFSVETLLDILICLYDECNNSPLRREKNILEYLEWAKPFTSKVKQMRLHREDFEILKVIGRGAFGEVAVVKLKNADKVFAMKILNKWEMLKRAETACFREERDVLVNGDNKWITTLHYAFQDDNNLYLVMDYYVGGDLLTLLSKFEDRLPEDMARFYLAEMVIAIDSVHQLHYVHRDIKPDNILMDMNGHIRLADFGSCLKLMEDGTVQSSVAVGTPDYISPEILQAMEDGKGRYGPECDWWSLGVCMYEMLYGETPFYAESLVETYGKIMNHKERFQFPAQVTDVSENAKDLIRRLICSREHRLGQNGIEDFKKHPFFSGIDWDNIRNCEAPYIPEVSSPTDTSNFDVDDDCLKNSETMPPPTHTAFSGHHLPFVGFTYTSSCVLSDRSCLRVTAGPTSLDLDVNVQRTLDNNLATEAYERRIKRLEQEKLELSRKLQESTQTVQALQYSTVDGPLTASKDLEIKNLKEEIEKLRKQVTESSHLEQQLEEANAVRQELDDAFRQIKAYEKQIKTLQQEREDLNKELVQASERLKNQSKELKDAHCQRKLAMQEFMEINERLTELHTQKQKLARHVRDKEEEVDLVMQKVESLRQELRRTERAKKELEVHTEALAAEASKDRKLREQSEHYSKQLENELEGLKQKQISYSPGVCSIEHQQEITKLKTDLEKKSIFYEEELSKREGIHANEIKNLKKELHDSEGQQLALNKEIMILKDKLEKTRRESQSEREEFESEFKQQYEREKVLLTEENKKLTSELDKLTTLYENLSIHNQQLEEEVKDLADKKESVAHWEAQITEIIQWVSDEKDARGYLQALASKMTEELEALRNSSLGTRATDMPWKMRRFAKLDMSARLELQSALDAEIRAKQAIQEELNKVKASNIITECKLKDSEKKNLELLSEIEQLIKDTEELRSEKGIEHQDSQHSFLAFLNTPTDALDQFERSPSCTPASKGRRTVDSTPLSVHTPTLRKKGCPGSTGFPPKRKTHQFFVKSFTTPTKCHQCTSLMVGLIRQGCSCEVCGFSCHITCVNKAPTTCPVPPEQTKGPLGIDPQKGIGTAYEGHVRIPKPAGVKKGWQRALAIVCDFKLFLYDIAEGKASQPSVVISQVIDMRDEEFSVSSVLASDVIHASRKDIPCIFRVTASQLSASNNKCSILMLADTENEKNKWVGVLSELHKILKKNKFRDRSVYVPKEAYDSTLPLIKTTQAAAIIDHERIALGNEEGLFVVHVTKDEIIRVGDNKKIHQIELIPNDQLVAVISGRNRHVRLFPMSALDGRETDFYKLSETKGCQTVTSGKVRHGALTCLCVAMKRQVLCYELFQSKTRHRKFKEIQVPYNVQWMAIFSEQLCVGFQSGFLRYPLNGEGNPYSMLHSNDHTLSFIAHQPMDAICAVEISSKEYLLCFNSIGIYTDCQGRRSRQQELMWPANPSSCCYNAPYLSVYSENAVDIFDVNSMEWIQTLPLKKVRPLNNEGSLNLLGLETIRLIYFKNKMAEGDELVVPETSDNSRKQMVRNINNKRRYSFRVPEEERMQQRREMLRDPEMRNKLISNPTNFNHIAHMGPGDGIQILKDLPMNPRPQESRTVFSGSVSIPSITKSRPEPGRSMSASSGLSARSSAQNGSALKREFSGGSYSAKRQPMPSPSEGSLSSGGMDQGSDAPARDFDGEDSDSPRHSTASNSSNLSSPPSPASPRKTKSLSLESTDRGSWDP

[6] = molecular target: Serine/threonine-protein kinase pim-2 (Homo sapiens, UniProt Q9P1W9); format: functional;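 further: value comes from a broad kinase panel profiling study in which PIM2 was one of the panel members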
[7] = molecular target: Serine/threonine-protein kinase PLK1 (Homo sapiens, UniProt P53350); format: functional;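 further: PLK1 measured as one member of a kinome-wide profiling panel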
[8] = molecular target: Calcium/calmodulin-dependent protein kinase type II subunit gamma (Homo sapiens, UniProt Q13555); format: functional
[9] = molecular target: Vascular endothelial growth factor receptor 2 (Homo sapiens, UniProt P35968); format: functional
[10] = molecular target: BDNF/NT-3 growth factors receptor (Homo sapiens, UniProt Q16620); format: functional;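 further: NTRK2 measured as one member of a broad kinome-wide kinase profiling panel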
SRSF protein kinase 1 = SRSF protein kinase 1 (Homo sapiens, UniProt Q96SB4); format: functional;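 further: measured as one member of a kinome-wide kinase profiling panel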
[11] = molecular target: Tyrosine-protein kinase ITK/TSK (Homo sapiens, UniProt Q08881); format: functional;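 further: affinity for ITK measured as one member of a broad kinase panel profiling binding across the kinome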
[12] = molecular target: Cyclin-dependent kinase 5 (Homo sapiens, UniProt Q00535); format: functional;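 further: CDK5 measured as one member of a kinase profiling panel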
Chain of Cyclin-dependent kinase 5 (Q00535 whole entry): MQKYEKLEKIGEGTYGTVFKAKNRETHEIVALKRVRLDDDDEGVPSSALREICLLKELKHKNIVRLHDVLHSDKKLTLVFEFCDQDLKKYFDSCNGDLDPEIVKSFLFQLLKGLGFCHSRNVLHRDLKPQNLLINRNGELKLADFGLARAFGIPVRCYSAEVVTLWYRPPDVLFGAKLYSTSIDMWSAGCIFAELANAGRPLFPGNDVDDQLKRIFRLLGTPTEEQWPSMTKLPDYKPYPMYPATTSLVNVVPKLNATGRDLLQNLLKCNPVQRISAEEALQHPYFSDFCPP

[13] = molecular target: Interleukin-1 receptor-associated kinase 4 (Homo sapiens, UniProt Q9NWZ3); format: functional
Chain of Interleukin-1 receptor-associated kinase 4 (Q9NWZ3 whole entry): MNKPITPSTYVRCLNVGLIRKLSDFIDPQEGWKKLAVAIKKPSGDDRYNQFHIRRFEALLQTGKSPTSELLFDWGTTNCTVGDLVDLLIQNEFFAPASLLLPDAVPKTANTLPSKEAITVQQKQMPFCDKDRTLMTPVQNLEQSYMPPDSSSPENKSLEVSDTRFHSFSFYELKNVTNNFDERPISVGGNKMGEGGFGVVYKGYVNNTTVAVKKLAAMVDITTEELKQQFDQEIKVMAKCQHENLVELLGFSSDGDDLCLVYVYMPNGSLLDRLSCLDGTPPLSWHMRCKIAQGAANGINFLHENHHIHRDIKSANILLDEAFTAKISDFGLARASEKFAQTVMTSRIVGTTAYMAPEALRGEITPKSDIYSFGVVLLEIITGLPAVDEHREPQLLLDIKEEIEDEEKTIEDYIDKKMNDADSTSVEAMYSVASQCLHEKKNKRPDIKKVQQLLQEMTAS

[14] = molecular target: Mitogen-activated protein kinase 12 (Homo sapiens, UniProt P53778); format: functional;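 further: measured as one member of a kinome-wide kinase profiling panel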
Aurora kinase A = Aurora kinase A (Homo sapiens, UniProt O14965); format: functional;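 further: value from the Navigating the Kinome kinase panel profiling, panel entry STK6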
[15] = molecular target: Serine/threonine-protein kinase Chk1 (Homo sapiens, UniProt O14757); format: functional;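 further: measured as one member of a kinome-wide kinase profiling panel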
[16] = molecular target: Serine/threonine-protein kinase DCLK1 (Homo sapiens, UniProt O15075); format: functional;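 further: affinity for DCLK1 (listed as DCAMKL1) measured as one member of a kinome-wide kinase profiling panel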
Chain of Serine/threonine-protein kinase DCLK1 (O15075 whole entry): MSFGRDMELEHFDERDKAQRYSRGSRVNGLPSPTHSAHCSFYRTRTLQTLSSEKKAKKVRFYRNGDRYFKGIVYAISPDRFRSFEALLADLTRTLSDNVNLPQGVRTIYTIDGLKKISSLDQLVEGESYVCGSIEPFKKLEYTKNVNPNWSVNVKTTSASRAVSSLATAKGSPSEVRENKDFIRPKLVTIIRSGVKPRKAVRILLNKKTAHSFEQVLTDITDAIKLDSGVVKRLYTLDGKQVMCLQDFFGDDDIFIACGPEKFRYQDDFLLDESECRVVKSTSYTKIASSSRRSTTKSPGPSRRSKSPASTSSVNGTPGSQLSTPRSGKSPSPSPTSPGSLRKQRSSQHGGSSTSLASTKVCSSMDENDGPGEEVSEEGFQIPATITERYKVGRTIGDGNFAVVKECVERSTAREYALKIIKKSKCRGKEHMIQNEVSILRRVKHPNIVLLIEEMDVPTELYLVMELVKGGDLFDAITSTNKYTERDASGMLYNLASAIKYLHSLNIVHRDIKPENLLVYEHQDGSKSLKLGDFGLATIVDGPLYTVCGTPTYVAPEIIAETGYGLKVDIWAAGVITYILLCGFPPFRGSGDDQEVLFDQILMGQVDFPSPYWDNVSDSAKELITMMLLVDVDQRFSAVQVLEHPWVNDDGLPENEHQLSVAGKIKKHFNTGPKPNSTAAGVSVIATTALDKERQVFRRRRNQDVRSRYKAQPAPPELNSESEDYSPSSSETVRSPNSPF

[17] = molecular target: Rho-associated protein kinase 1 (Homo sapiens, UniProt Q13464); format: functional;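 further: measured within a broad kinome-wide panel profiling many kinases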
[18] = molecular target: Calcium/calmodulin-dependent protein kinase type 1 (Homo sapiens, UniProt Q14012); format: functional
[19] = molecular target: Interleukin-1 receptor-associated kinase 1 (Homo sapiens, UniProt P51617); format: functional;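 further: IRAK1 tested as one member of a kinome panel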
[20] = molecular target: Casein kinase I isoform delta (Homo sapiens, UniProt P48730); format: functional;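 further: measured as one member (CSNK1D) of a kinome panel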
[21] = molecular target: Glycogen synthase kinase-3 beta (Homo sapiens, UniProt P49841); format: functional;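 further: value comes from a broad kinome profiling panel, with GSK3B as the panel member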
[22] = molecular target: Tyrosine-protein kinase Lck (Homo sapiens, UniProt P06239); format: functional;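 further: lck was assayed as one member of a kinase panel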
Chain of Tyrosine-protein kinase Lck (P06239 whole entry): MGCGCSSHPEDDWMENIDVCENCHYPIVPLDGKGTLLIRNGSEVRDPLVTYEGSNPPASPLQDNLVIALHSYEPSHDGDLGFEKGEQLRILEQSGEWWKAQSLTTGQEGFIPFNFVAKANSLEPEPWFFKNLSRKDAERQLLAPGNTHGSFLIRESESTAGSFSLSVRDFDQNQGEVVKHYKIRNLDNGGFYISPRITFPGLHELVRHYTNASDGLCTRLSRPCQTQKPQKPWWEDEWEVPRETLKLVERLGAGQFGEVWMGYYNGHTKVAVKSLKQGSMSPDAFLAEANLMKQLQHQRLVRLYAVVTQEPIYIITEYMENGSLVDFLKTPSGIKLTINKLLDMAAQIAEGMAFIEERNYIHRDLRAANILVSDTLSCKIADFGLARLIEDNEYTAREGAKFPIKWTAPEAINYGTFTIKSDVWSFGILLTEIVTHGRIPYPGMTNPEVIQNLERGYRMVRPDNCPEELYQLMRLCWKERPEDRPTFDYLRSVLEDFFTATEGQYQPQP

[23] = molecular target: Serine/threonine-protein kinase Nek2 (Homo sapiens, UniProt P51955); format: functional
[24] = molecular target: Hepatocyte growth factor receptor (Homo sapiens, UniProt P08581); format: functional;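 further: kinase panel profiling across the kinome, with MET as the panel member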
[25] = molecular target: Serine/threonine-protein kinase PLK3 (Homo sapiens, UniProt Q9H4B4); format: functional
[26] = molecular target: Tyrosine-protein kinase ABL1 (Homo sapiens, UniProt P00519); format: functional
Chain of Tyrosine-protein kinase ABL1 (P00519 whole entry): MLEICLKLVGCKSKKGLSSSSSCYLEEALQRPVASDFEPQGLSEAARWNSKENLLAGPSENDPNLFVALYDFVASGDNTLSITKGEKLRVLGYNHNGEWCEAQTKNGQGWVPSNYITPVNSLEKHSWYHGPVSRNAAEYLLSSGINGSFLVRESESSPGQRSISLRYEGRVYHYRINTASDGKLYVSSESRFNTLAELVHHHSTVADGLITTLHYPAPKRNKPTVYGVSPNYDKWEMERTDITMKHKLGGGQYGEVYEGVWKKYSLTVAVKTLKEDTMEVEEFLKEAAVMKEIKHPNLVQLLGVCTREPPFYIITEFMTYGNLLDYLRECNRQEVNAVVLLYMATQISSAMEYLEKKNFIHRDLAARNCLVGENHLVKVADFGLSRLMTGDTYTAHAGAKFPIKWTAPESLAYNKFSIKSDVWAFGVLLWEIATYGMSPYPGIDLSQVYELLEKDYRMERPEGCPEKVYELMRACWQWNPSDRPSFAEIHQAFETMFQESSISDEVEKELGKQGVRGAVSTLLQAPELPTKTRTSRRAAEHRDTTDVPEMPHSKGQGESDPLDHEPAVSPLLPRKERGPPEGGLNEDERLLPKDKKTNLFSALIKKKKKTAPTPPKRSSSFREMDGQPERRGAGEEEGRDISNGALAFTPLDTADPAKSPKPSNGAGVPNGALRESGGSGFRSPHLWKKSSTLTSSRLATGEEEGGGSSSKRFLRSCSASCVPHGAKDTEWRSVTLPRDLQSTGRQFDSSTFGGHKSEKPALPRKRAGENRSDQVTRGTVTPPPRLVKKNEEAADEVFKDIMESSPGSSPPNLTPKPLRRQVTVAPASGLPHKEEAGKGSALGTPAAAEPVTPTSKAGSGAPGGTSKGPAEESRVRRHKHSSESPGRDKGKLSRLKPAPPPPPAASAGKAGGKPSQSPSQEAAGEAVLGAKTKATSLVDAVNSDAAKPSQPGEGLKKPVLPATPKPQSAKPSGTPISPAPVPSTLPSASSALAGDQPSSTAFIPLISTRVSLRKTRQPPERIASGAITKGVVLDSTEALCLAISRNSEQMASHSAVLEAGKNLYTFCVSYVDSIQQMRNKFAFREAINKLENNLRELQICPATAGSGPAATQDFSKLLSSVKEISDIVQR

[27] = A549 cell cytotoxicity, dose response, cytotoxicity control, plate reader, cherry-pick, antagonist series (AID 743412); format: functional, cell-based
[28] = LGR2 antagonists, dose response, cell-based, HEK293, CRE-luciferase reporter, cherry pick, set 2 (AID 743343); format: functional;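 further: transfected cells were stimulated with diluted bursicon conditioned medium after compound addition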
[29] = molecular target: T2, Sentrin-specific protease 8 (Homo sapiens, UniProt Q96LD8); assay: SENP8 protease inhibitors, SAR follow-up, biochemical, luminescence (AID 504501); format: functional
T2 sequence (Q96LD8 whole entry): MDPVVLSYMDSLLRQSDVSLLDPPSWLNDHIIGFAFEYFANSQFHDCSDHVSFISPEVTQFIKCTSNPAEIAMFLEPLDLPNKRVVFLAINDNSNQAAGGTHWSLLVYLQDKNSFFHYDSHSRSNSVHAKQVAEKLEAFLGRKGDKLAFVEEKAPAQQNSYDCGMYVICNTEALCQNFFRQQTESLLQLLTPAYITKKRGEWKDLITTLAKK

cells = format: functional
[30] = cytotoxicity toward NIH3T3 fibroblasts, dose response, counter-screen, cell-based, ATP luminescence, mouse fibroblasts (AID 2010); format: functional;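 further: cells exposed to compound for about 90 hours before reading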
BJ = assay: cytotoxicity toward BJ-TERT-LT-ST fibroblasts, dose response, cell-based, RAS-independent, luminescence (AID 1935); format: functional; conditions: Homo sapiens;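 further: BJ fibroblasts immortalized with TERT plus LT and ST oncogenes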
Beta-galactosidase = Beta-galactosidase (Escherichia coli, UniProt Q8VNN2); assay: PubChem AID 485352; format: functional
[31] = inhibitors of intracellular T. cruzi replication, confirmation, NIH3T3 host cells, beta-gal luminescence (AID 2044); format: functional, cell-based;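 further: intracellular parasites grown in NIH/3T3 mouse fibroblasts as host cells; luminescent beta-galactosidase reporter signal from transgenic T. cruzi replicating inside host cells; inhibitors lower the luminescence signal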
[32] = Luminescence-based dose response cell-based high throughput screening assay for cytotoxic compounds using the IEC-6 intestinal epithelial cell line. [Related pubchem assays: 1858 (Summary AID.), 1825 (Counterscreen.), 1907 (Confirmation screen.)]; format: functional

Cc1ccc(C(=O)c2c(C)oc3c2C(=O)C(=O)c2ccccc2-3)cc1
IC50 [1]: 5.42 µM (active)

CN(C)c1ncc(C2=C(Cl)C(=O)C(N3CCCC3)=C(Cl)C2=O)s1
IC50 [2]: > 64 µM (inactive)
IC50 [3]: > 66.6 µM (inactive)

O=C1NC(=S)SC1=C1C(=O)Nc2ccc(Br)cc21
Ki [4]: 2 µM (active)
Ki (Misshapen-like kinase 1): > 7.94 µM (inactive)
Ki (Ephrin type-A receptor 2): > 3.16 µM (inactive)
Ki [5]: > 10 µM (inactive)
Ki [6]: 0.251 µM (active)
Ki [7]: 6.31 µM (active)
Ki [8]: 0.501 µM (active)
Ki [9]: > 7.94 µM (inactive)
Ki [10]: > 5.01 µM (inactive)
Ki (SRSF protein kinase 1): 6.31 µM (active)
Ki [11]: > 1.58 µM (inactive)
Ki [12]: > 10 µM (inactive)
Ki [13]: 7.94 µM (active)
Ki [14]: > 6.31 µM (inactive)
Ki (Aurora kinase A): 0.501 µM (active)
Ki [15]: > 7.94 µM (inactive)
Ki [16]: > 10 µM (inactive)
Ki [17]: 5.01 µM (active)
Ki [18]: > 3.16 µM (inactive)
Ki [19]: > 7.94 µM (inactive)
Ki [20]: 5.01 µM (active)
Ki [21]: 0.501 µM (active)
Ki [22]: > 2.51 µM (inactive)
Ki [23]: > 10 µM (inactive)
Ki [24]: > 3.16 µM (inactive)
Ki [25]: 3.16 µM (active)
Ki [26]: > 0.631 µM (inactive)

Cc1cnc(NC(=O)c2sc3ccccc3c2Cl)s1
AC50 [27]: 25.4 µM (active)
AC50 [28]: 3.07 µM (active)
IC50 [29]: 3.78 µM (active)

Nc1ccc(Br)c2cccnc12
IC50 (cells): > 50 µM (active)

Cc1ccc(Nc2cc(C)nn2-c2nc(C)cc(O)n2)cc1
EC50 [30]: 0.497 µM (active)
EC50 (BJ): 2.94 µM (inconclusive)
EC50 (Beta-galactosidase): > 40 µM (inactive)
EC50 [31]: < 0.1 µM (active)
IC50 [32]: 0.546 µM (active)
